{"source": "patent US20230277508A1", "about": "“USE OF COMPOUND AS CYP2E1 INHIBITOR” (SHANGHAI LING XI BIOTECHNOLOGY DEVELOPMENT CO., LTD., priority 2020, published 2023)", "key": {"[1]": {"system": "focal cerebral ischemia-reperfusion injury in rats", "assay": "Focal CIRI rat model with MCAO", "type": "in vivo", "from_the_text": "Experimental method: A focal CTRI rat model with middle cerebral artery occlusion (MCAO) was constructed by a modified Zea-longa suture-occluded method."}, "[2]": {"system": "LPS-induced pulmonary fibrosis in mice", "assay": "LPS-induced mouse pulmonary fibrosis model", "type": "in vivo, C57BL/6N mouse", "experimental": "(§1) Experimental method: A C57BL/6N mouse pulmonary fibrosis model was established through intratracheal instillation with 8 mg/kg LPS. An SMI0 intervention group was divided into a low-dose group and a high-dose group, which were intragastrically administered with the compound SMI0 respectively at 30 mg/kg and 90 mg/kg every day from three days before modeling to the end of the 28-d modeling (control group, n=8; model group, n=8; and SMI0 compound high-dose group, n=8). At the end of the experiment, a body weight of mice in each group was recorded, blood was collected from the orbit, the mice were sacrificed, and lung tissues were collected and weighed. The left lungs were fixed in 4% formalin and subjected to HE and Masson staining, and the lung tissues were subjected to fibrosis grading and fibrosis and histological scoring to reflect a severity of pulmonary fibrosis.\nExperimental method: An ammonium molybdate method and a microplate method were used to treat a mouse lung tissue homogenate, and changes of oxidative stress indexes CAT and GSH in the lung tissue of mice in each group were detected. Expression levels of […] and α-SMA in the mouse lung tissue were evaluated through immunohistochemical staining, and a positive area percentage was counted by Image-Pro Plus software. Expression levels of the epithelial cell marker E-cadherin, the apoptosis-associated protein Bax, and the anti-apoptotic protein Bcl-2 were detected by WB."}, "[3]": {"system": "LPS-induced acute lung injury (ALI) in mice", "assay": "LPS-induced mouse lung injury", "type": "in vivo, C57BL/6N mouse", "experimental": "as §1, with “modeling until 6 h before” for “modeling to”, “the” for “the 28-d”, “HE staining.” for “HE and Masson staining, and the lung tissues were subjected to fibrosis grading and fibrosis and histological scoring to reflect a severity of pulmonary fibrosis.”\nExperimental method: A neutrophil level in a mouse lung tissue was evaluated through immunohistochemistry (IHC) staining, and an immunostaining-positive area percentage was quantitatively evaluated by Image-Pro Plus software. RNA of a mouse lung tissue was extracted by a kit method, and expression levels of TNF-α and IL-1β in lung tissues of mice were determined by RT-PCR."}, "[4]": {"details": "SMI0 intervention group vs model group, P<0.01"}, "[5]": {"details": "RT-PCR, SMI0 high-dose group vs model group, P<0.05"}}, "data": [{"smiles": "CC(=O)c1scnc1C", "note": "[SMI0]", "values": [{"measurement": "inhibition rate on the cerebral edema volume", "setting": "[1]; SMI0 150 mg/kg", "value": 34.39, "unit": "%"}, {"measurement": "inhibition rate on the cerebral infarction volume", "setting": "[1]; SMI0 150 mg/kg", "value": 36.06, "unit": "%"}, {"measurement": "cerebral edema volume", "setting": "[1]; SMI0 150 mg/kg ig 10 min before reperfusion, 24 h reperfusion, model group 19.25%", "value": 12.63, "unit": "%"}, {"measurement": "cerebral infarction volume", "setting": "[1]; SMI0 150 mg/kg ig 10 min before reperfusion, 24 h reperfusion, model group 51.03%", "value": 32.62, "unit": "%"}, {"measurement": "lung index", "setting": "[2]; SMI0 intervention group (30, 90 mg/kg ig daily, 28 d) vs model group", "value": "significantly reduced"}, {"measurement": "immunostaining-positive area percentage of TGF-β 1", "setting": "[2]; [4]", "value": "significantly reduced"}, {"measurement": "immunostaining-positive area percentage of α-SMA", "setting": "[2]; [4]", "value": "significantly reduced"}, {"measurement": "oxidative stress index CAT level in lung tissue", "setting": "[2]; [4]", "value": "significantly increased"}, {"measurement": "pathological inflammatory cell infiltration", "setting": "[2]; SMI0 intervention group, 28 d", "value": "no obvious pathological inflammatory cell infiltration"}, {"measurement": "Bcl-2 level", "setting": "[2]; WB, SMI0 intervention group vs model group, P<0.001", "value": "significantly increased"}, {"measurement": "Bax level", "setting": "[2]; WB, SMI0 intervention group vs model group, P<0.01", "value": "significantly reduced"}, {"measurement": "epithelial cell marker E-cadherin level", "setting": "[2]; WB, SMI0 intervention group vs model group, P<0.05", "value": "significantly increased"}, {"measurement": "expression level of IL-1β in the lung tissue", "setting": "[3]; [5]", "value": "significantly reduced"}, {"measurement": "expression level of TNF-α in the lung tissue", "setting": "[3]; [5]", "value": "significantly reduced"}, {"measurement": "lung injury score", "setting": "[3]; SMI0 administration group vs model group", "value": "significant reduced"}, {"measurement": "MPO immunostaining-positive area percentage in lung tissue", "setting": "[3]; SMI0 high-dose group vs model group, P<0.05", "value": "significantly reduced"}, {"measurement": "lung index", "setting": "[3]; both SMI0 low-dose (30 mg/kg) and high-dose (90 mg/kg) groups, ig daily, vs model group, P<0.01", "value": "significantly reduced"}]}]}
